Assay results published in patent US20220220128A1, “HETEROCYCLIC COMPOUNDS AS KINASE INHIBITORS, COMPOSITIONS COMPRISING THE HETEROCYCLIC COMPOUND, AND METHODS OF USE THEREOF” (JS Innopharm (Shanghai) Ltd, priority 2019, published 2022).

How the values were obtained:
BAF3-KIF5B-RET cells = biological target: T1, BAF3-KIF5B-RET cells (Homo sapiens, UniProt P07949); assay: BAF3-KIF5B-RET Cell proliferation assay (CellTiter-Glo, 72 hours); type: cell-based; settings: growth inhibition, read-out: BA/F3-KIF5B-RET Cellular activity
T1 construct: fused on or other part: P33176 (Kinesin-1 heavy chain)
T1 sequence (P07949 whole entry, change not shown, the tested form may be a part): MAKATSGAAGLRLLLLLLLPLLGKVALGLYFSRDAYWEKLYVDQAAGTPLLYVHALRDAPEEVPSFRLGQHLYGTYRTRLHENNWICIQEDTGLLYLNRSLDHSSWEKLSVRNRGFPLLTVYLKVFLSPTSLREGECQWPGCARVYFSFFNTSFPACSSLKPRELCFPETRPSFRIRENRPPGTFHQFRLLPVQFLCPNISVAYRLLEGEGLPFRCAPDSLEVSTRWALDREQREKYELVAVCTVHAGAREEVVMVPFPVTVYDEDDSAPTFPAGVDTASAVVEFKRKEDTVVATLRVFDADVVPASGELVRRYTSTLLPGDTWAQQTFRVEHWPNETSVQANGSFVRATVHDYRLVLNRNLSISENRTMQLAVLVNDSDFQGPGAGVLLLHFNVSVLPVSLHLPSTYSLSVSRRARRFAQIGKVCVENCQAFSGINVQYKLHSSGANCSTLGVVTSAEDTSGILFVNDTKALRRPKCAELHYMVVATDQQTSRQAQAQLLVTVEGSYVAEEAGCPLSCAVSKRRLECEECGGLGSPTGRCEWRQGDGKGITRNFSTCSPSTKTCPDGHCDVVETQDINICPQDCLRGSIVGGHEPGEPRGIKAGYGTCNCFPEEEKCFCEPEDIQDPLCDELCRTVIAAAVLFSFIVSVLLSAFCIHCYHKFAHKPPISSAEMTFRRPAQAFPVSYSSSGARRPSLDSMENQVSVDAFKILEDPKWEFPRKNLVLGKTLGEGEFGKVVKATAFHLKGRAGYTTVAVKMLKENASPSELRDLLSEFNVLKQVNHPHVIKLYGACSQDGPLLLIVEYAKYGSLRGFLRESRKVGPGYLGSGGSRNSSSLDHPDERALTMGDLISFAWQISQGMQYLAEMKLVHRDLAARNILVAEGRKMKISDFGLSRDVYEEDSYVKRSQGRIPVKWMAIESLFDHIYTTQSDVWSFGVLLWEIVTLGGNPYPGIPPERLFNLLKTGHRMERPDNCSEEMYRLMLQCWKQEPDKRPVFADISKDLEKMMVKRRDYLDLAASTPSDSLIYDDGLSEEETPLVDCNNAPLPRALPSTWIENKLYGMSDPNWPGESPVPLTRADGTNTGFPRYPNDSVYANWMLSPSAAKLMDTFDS
How it was run: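 Cells seeded at 2,000/well in RPMI-1640 with 10% FBS and left 24 h at 37 °C, then exposed 72 h to nine compound levels (final 1 μM down to 0.00015 μM, 0.1% DMSO). CellTiter-Glo luminescence gave viability versus DMSO wells, from which IC50 was fitted.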

human KDR kinase = biological target: T2, human KDR kinase (Homo sapiens, UniProt P35968); assay: KDR Kinase Assay (LanthaScreen TR-FRET enzymatic assay); type: biochemical; settings: 1.2 nM KDR, 92 μM ATP
T2 construct: purchased Carna 08-191
T2 sequence (P35968 20-1356): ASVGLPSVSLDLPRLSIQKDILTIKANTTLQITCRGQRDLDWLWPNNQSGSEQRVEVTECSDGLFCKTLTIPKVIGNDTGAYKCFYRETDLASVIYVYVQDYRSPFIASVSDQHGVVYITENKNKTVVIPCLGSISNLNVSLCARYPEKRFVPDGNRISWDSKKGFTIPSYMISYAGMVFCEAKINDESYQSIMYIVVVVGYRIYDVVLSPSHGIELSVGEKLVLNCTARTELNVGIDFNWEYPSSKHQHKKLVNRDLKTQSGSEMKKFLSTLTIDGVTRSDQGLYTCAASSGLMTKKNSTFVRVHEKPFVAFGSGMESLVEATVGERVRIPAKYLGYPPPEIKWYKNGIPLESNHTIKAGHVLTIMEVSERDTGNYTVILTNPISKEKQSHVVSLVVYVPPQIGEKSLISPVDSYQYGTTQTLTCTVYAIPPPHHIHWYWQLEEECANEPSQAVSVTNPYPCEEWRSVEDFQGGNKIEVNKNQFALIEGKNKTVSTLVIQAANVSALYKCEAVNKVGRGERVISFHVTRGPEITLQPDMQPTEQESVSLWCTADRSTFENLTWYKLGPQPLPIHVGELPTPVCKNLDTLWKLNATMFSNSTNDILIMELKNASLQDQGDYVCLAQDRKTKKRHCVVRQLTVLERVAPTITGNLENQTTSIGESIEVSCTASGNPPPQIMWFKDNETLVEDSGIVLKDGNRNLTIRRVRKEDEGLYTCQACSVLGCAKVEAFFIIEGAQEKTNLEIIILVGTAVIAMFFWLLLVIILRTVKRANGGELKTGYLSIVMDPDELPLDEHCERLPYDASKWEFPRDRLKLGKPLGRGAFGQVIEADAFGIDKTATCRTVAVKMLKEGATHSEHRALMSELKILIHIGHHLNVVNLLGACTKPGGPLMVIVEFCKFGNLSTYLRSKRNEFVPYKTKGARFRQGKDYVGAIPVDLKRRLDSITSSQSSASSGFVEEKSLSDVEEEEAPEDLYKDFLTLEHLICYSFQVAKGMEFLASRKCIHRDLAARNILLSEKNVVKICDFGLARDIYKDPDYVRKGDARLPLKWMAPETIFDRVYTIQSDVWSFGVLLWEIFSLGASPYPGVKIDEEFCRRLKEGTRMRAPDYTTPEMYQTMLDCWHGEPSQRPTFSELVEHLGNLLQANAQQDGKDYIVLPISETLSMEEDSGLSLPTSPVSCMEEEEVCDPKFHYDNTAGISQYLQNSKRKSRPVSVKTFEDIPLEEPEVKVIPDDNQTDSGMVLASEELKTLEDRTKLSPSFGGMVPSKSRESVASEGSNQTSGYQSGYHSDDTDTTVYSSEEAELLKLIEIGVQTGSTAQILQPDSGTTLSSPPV
How it was run: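 Recombinant human KDR (1.2 nM) preincubated 15 min at room temperature with compound, then reacted with 3 μM FAM-P22 peptide and 92 μM ATP in 50 mM HEPES pH 7.5 for 1 h at 28° C. EDTA stop, then TR-FRET acceptor/donor ratio read; percent of 1% DMSO control fitted sigmoidally for IC50.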

human RET kinase = biological target: T3, human RET kinase (Homo sapiens, UniProt P07949); assay: RET Kinase Assay (LanthaScreen TR-FRET enzymatic assay); type: biochemical; settings: 7 nM RET, 23 μM ATP
T3 construct: purchased Carna 08-159
T3 sequence (P07949 29-1114): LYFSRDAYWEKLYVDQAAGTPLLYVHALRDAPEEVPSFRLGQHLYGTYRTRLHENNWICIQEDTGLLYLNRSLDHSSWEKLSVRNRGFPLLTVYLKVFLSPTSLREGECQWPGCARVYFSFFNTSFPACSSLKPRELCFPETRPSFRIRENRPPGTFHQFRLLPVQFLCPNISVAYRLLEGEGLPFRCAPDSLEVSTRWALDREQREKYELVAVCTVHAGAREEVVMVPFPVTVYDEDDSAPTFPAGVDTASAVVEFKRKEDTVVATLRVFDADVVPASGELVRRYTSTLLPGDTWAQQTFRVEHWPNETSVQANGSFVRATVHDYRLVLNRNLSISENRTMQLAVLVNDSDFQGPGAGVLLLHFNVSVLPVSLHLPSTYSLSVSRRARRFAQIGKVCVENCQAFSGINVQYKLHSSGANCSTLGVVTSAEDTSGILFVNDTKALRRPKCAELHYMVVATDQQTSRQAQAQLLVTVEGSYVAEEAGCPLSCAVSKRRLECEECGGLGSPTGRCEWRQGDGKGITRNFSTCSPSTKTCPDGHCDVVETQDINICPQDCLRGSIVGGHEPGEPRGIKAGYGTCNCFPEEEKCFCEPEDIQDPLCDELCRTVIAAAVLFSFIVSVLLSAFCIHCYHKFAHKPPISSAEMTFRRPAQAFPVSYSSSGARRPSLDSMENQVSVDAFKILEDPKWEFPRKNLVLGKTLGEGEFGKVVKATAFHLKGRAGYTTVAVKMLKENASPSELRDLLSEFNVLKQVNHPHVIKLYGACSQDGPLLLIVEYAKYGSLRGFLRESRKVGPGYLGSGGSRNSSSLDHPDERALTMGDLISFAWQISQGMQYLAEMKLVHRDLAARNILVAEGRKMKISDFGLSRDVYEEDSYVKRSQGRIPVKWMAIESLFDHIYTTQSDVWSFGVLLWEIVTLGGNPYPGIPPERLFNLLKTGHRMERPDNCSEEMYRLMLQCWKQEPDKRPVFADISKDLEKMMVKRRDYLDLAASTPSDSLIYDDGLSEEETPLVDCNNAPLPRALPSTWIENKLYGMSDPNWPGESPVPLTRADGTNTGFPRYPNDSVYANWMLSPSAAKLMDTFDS
How it was run: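 Human RET (7 nM) preincubated 15 min with compound in 50 mM HEPES pH 7.5, 0.0015% Brij-35, then reacted with 3 μM FAM-P2 peptide and 23 μM ATP for 1 h at 28° C.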

TT cells = assay: TT Cell Proliferation Assay (WST-8, 8 days); type: cell-based; settings: Homo sapiens, TT, 192 h, growth inhibition in TT cells, read-out: TT Cellular Activity
How it was run: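 TT cells, 6,000/well in RPMI-1640 with 10% FBS, attached 24 h, then exposed to compound at 5 μM down to 0.0005 μM final (0.5% DMSO) for 8 days at 37 °C. WST-8 added for 5 h, absorbance at 450 nm. IC50 calculated from the dilution series.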

SMILES	GI50 (BAF3-KIF5B-RET cells)	IC50 (human KDR kinase)	IC50 (human RET kinase)	IC50 (TT cells)
CC(C)(O)COc1cc(-c2ccc(N3C[C@@H]4C[C@@](C)(NC(=O)c5ncccc5Cl)C[C@@H]4C3)nc2)c2c(C#N)cnn2c1 [Example 54, 3-chloro-N-((3aR,5s,6aS)-2-(5-(3-cyano-6-(2-hydroxy-2-methylpropoxy)pyrazolo[1,5-a]pyridin-4-yl)pyridin-2-yl)-5-methyloctahydro-cyclopenta[c]pyrrol-5-yl)picolinamide]	10 to 50 nM	> 100 nM	≤ 10 nM	10 to 50 nM
Cn1cc(-c2cc(-c3ccc(N4C5CC6CC4CC(N)(C6)C5)nc3)c3c(C#N)cnn3c2)cn1 [Example 181, 4-(6-((1R,3S,5s,7s)-5-amino-2-azaadamantan-2-yl)pyridin-3-yl)-6-(1-methyl-1H-pyrazol-4-yl)pyrazolo[1,5-a]pyridine-3-carbonitrile]	10 to 50 nM	≤ 10 nM	≤ 10 nM	≤ 10 nM
CC(C)(O)COc1cc(-c2ccc(N3C4CC5CC3CC(NC(=O)c3ncccc3F)(C5)C4)nc2)c2c(C#N)cnn2c1 [Example 137, N-((1R,3S,5s,7s)-2-(5-(3-cyano-6-(2-hydroxy-2-methylpropoxy)pyrazolo[1,5-a]pyridin-4-yl)pyridin-2-yl)-2-azaadamantan-5-yl)-3-fluoropicolinamide]	≤ 10 nM	50 to 100 nM	≤ 10 nM	≤ 10 nM
Cn1ccc(-c2cc(-c3ccc(N4C[C@@H]5C[C@@](C)(NC(=O)c6ncccc6Cl)C[C@@H]5C4)nc3)c3c(C#N)cnn3c2)n1 [Example 56, 3-chloro-N-((3aR,5s,6aS)-2-(5-(3-cyano-6-(1-methyl-1H-pyrazol-3-yl)pyrazolo[1,5-a]pyridin-4-yl)pyridin-2-yl)-5-methyloctahydro-cyclopenta[c]pyrrol-5-yl)picolinamide]	≤ 10 nM	10 to 50 nM	≤ 10 nM	≤ 10 nM
Cn1cc(-c2cc(-c3ccc(N4C[C@@H]5[C@@H](CNC(=O)c6ncccc6Cl)[C@@H]5C4)nc3)c3c(C#N)cnn3c2)cn1 [Example 73, 3-chloro-N-(((1R,5S,6s)-3-(5-(3-cyano-6-(1-methyl-1H-pyrazol-4-yl)pyrazolo[1,5-a]pyridin-4-yl)pyridin-2-yl)-3-azabicyclo[3.1.0]hexan-6-yl)methyl)picolinamide]	≤ 10 nM	≤ 10 nM	≤ 10 nM	≤ 10 nM
COc1ccc(CN[C@]2(C)C[C@H]3CN(c4cnc(-c5cc(-c6cnn(C)c6)cn6ncc(C#N)c56)cn4)C[C@H]3C2)cn1 [Example 101, 4-(5-((3aR,5s,6aS)-5-(((6-methoxypyridin-3-yl)methyl)amino)-5-methylhexahydrocyclopenta[c]pyrrol-2(1H)-yl)pyrazin-2-yl)-6-(1-methyl-1H-pyrazol-4-yl)pyrazolo[1,5-a]pyridine-3-carbonitrile]	50 to 100 nM	50 to 100 nM	≤ 10 nM	50 to 100 nM
COc1ccc(CN[C@]2(C)C[C@H]3CN(c4ccc(-c5cc(-c6cnn(C)c6)cn6ncc(C#N)c56)cn4)C[C@H]3C2)cn1 [Example 152, 4-(6-((3aR,5s,6aS)-5-(((6-methoxypyridin-3-yl)methyl)amino)-5-methylhexahydrocyclopenta[c]pyrrol-2(1H)-yl)pyridin-3-yl)-6-(1-methyl-1H-pyrazol-4-yl)pyrazolo[1,5-a]pyridine-3-carbonitrile]	50 to 100 nM	10 to 50 nM	≤ 10 nM	–
COc1ccc(C(=O)NC23CC4CC(C2)N(c2ccc(-c5cc(OCC(C)(C)O)cn6ncc(C#N)c56)cn2)C(C4)C3)cn1 [Example 138, N-((1R,3S,5s,7s)-2-(5-(3-cyano-6-(2-hydroxy-2-methylpropoxy)pyrazolo[1,5-a]pyridin-4-yl)pyridin-2-yl)-2-azaadamantan-5-yl)-6-methoxynicotinamide]	10 to 50 nM	≤ 10 nM	≤ 10 nM	–
CC(C)(O)COc1cc(-c2ccc(N3C4CC5CC3CC(C(=O)Nc3ncccc3Cl)(C5)C4)nc2)c2c(C#N)cnn2c1 [Example 98, (1R,3 S,5s,7s)-N-(3-chloropyridin-2-yl)-2-(5-(3-cyano-6-(2-hydroxy-2-methylpropoxy)pyrazolo[1,5-a]pyridin-4-yl)pyridin-2-yl)-2-azaadamantane-5-carboxamide]	≤ 10 nM	10 to 50 nM	≤ 10 nM	≤ 10 nM
CC(C)(O)COc1cc(-c2ccc(N3C[C@@H]4[C@H](C3)[C@H]4NC(=O)c3ncccc3Cl)nc2)c2c(C#N)cnn2c1 [Example 37, 3-chloro-N-((1R,5S,6s)-3-(5-(3-cyano-6-(2-hydroxy-2-methylpropoxy)pyrazolo[1,5-a]pyridin-4-yl)pyridin-2-yl)-3-azabicyclo[3.1.0]hexan-6-yl)picolinamide]	> 100 nM	> 100 nM	≤ 10 nM	50 to 100 nM
Cn1cc(-c2cc(-c3ccc(N4C[C@@H]5C[C@@](C)(NC(=O)c6ncccc6Cl)C[C@@H]5C4)nc3)c3c(C#N)cnn3c2)cn1 [Example 55, 3-chloro-N-((3aR,5s,6aS)-2-(5-(3-cyano-6-(1-methyl-1H-pyrazol-4-yl)pyrazolo[1,5-a]pyridin-4-yl)pyridin-2-yl)-5-methyloctahydro-cyclopenta[c]pyrrol-5-yl)picolinamide]	≤ 10 nM	≤ 10 nM	≤ 10 nM	≤ 10 nM
CC(C)(O)COc1cc(-c2ccc(N3C[C@H]4CN(C(=O)c5c(F)cccc5Cl)C[C@H]4C3)nc2)c2c(C#N)cnn2c1 [Example 9, 4-(6-((3aR,6aS)-5-(2-chloro-6-fluorobenzoyl)hexahydropyrrolo[3,4-c]pyrrol-2(1H)-yl)pyridin-3-yl)-6-(2-hydroxy-2-methylpropoxy)pyrazolo[1,5-a]pyridine-3-carbonitrile]	10 to 50 nM	50 to 100 nM	≤ 10 nM	≤ 10 nM
Cn1ccc(-c2cc(-c3cnc(N4C[C@@H]5C[C@@](C)(NC(=O)c6ncccc6Cl)C[C@@H]5C4)cn3)c3c(C#N)cnn3c2)n1 [Example 70, 3-chloro-N-((3aR,5s,6aS)-2-(5-(3-cyano-6-(1-methyl-1H-pyrazol-3-yl)pyrazolo[1,5-a]pyridin-4-yl)pyrazin-2-yl)-5-methyloctahydrocyclopenta[c]pyrrol-5-yl)picolinamide]	≤ 10 nM	10 to 50 nM	≤ 10 nM	10 to 50 nM
Cn1cc(-c2cc(-c3ccc(N4C[C@@H]5CN(S(=O)(=O)c6c(F)cccc6Cl)C[C@@H]5C4)nc3)c3c(C#N)cnn3c2)cn1 [Example 11, 4-(6-((3aR,6aS)-5-(2-chloro-6-fluorophenylsulfonyl)hexahydropyrrolo[3,4-c]pyrrol-2(1H)-yl)pyridin-3-yl)-6-(1-methyl-1H-pyrazol-4-yl)pyrazolo[1,5-a]pyridine-3-carbonitrile]	≤ 10 nM	≤ 10 nM	≤ 10 nM	≤ 10 nM
CC(C)(O)COc1cc(-c2cnc(N3C[C@@H]4[C@@H](CNC(=O)c5ncccc5Cl)[C@@H]4C3)cn2)c2c(C#N)cnn2c1 [Example 103, 3-chloro-N-(((1R,5S,6s)-3-(5-(3-cyano-6-(2-hydroxy-2-methylpropoxy)pyrazolo[1,5-a]pyridin-4-yl)pyrazin-2-yl)-3-azabicyclo[3.1.0]hexan-6-yl)methyl)picolinamide]	10 to 50 nM	> 100 nM	≤ 10 nM	–
Cn1cc(-c2cc(-c3ccc(N4C5CC6CC4CC(NC(=O)OC(C)(C)C)(C6)C5)nc3)c3c(C#N)cnn3c2)cn1 [Example 180]	≤ 10 nM	≤ 10 nM	≤ 10 nM	≤ 10 nM
Cn1cc(-c2cc(-c3cnc(N4C[C@@H]5[C@H](C4)[C@H]5NC(=O)c4ncccc4Cl)cn3)c3c(C#N)cnn3c2)cn1 [Example 102, 3-chloro-N-((1R,5S,6s)-3-(5-(3-cyano-6-(1-methyl-1H-pyrazol-4-yl)pyrazolo[1,5-a]pyridin-4-yl)pyrazin-2-yl)-3-azabicyclo[3.1.0]hexan-6-yl)picolinamide]	10 to 50 nM	50 to 100 nM	≤ 10 nM	–
Cn1cc(-c2cc(-c3ccc(N4C[C@H]5CN(C(=O)c6c(F)cccc6Cl)C[C@H]5C4)nc3)c3c(C#N)cnn3c2)cn1 [Example 5, 4-(6-((3aR,6aS)-5-(2-chloro-6-fluorobenzoyl)hexahydropyrrolo[3,4-c]pyrrol-2(1H)-yl)pyridin-3-yl)-6-(1-methyl-1H-pyrazol-4-yl)pyrazolo[1,5-a]pyridine-3-carbonitrile]	≤ 10 nM	≤ 10 nM	≤ 10 nM	≤ 10 nM
CC(C)C(=O)NC12CC3CC(C1)N(c1ccc(-c4cc(OCC(C)(C)O)cn5ncc(C#N)c45)cn1)C(C3)C2 [Example 132, N-((1R,3S,5s,7s)-2-(5-(3-cyano-6-(2-hydroxy-2-methylpropoxy)pyrazolo[1,5-a]pyridin-4-yl)pyridin-2-yl)-2-azaadamantan-5-yl)isobutyramide]	10 to 50 nM	> 100 nM	≤ 10 nM	≤ 10 nM
